Where two headings read alike, the source gives them in different places. Non-standard residues stand in square brackets, D forms with d. No end group written: not given here.
Legend:
[1] = system: B-chronic lymphocytic leukemia (CLL) primary cells; conditions: WO 2013/182650, cited from earlier work
MEC-1 cells = test: MEC-1 cell death (PCD) after 2 h peptide treatment; format: cell-based; conditions: for MEC-1 Cell Death (%) 2 h: Table 2, NPD = Non Pertinent Data; for MEC-1 Cell Death (%) 2 h, [peptides] = 200 μM: Table 3, 200 μM peptide; for Cell Death (MEC-1, 2 h): Table 4
Procedure: Then the peptides structures were tested via NMR and X-ray. The peptides were also tested for their activity on MEC-1 and their KDs and Retention times on LCMS were determined.

[2] = target: T1, CD47 (membrane preparation from MEC-1 cells) (Homo sapiens, UniProt Q08722); test: Binding affinity by biolayer interferometry (Octet RED96) on biotinylated MEC-1 cell membrane preparation; conditions: NPD = Non Pertinent Data; for Kd(μM)PR: Table 4, N-methyl peptides
T1 construct: MEC-1 cell membrane preparation were biotinylated with the EZ-Link NHS-PEG4-Biotin kit; endogenous in cells; host or cells: MEC-1 cells (membrane preparation)
T1 sequence (Q08722 19-323): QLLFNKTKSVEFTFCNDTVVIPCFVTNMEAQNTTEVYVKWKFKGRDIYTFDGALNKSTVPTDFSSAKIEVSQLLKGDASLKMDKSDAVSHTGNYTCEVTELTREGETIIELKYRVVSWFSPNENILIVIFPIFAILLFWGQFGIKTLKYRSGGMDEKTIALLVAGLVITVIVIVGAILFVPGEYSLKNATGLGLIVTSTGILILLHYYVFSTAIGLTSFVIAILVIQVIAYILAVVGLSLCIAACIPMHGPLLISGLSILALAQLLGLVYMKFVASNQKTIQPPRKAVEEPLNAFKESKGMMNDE
Procedure: The binding affinities of peptides for a membrane preparation from MEC-1 cells were measured by biolayer interferometry on an Octet RED96 System (Pall FortéBio Corp., Menlo Park, Calif.).
The binding affinities of peptides for a membrane preparation from MEC-1 cells were measured by biolayer interferometry on an Octet RED96 System (Pall FortéBio Corp., Menlo Park, Calif.). This system monitors interference of light reflected from two sources (an internal reflection surface and the liquid/solid interface of a fiber optic sensor) to measure the rate of binding of molecules to the biosensor surface.
MEC-1 cell membrane preparation were biotinylated with the EZ-Link NHS-PEG4-Biotin kit from Thermo-Scientific. Biotinylated membranes were then loaded onto SuperStreptavidin (SSA) biosensors (Pall FortéBio Corp.) at empirically determined concentrations.
In order to highlight the pharmacological properties of these peptides, a systematic SAR study by the development of a binding assay allowing to the assessment of the affinity of the 4N1K analogues to CD47 was initiated. […] An Ala-scan to identify the pharmacophores of 4N1K was implemented.
The binding affinities of peptides for a MEC-1 cells membrane preparation were measured by biolayer interferometry on an Octet RED96 System (Pall FortéBio Corp., Menlo Park, Calif.). This system monitors interference of light reflected from two sources (an internal reflection surface and the liquid/solid interface of a fiber optic sensor) to measure the rate of binding of molecules to the biosensor surface. MEC-1 cells membrane preparation is biotinylated with the EZ-Link NHS-PEG4-Biotin kit from Thermo-Scientific and excess biotin is removed using desalting column from Thermo-Scientific. Biotinylated membranes are then loaded onto SuperStreptavidin (SSA) biosensors (Pall FortéBio Corp.) at empirically determined concentrations. […] Typically, the biosensors were pre-equilibrated in PBS containing either biotinylated membranes or biocytine 100 μg/mL. Biosensors are then equilibrated in assay buffer for 10 min, brought to baseline in assay buffer for 60 sec. and transferred to wells containing peptide in dose-response (association for 120 sec. and dissociation for 300 sec.). The double reference with either membrane-loaded biosensors without any peptide dose-response or biocytine-loaded biosensors with each peptide dose-response were run in parallel for background signal double subtractions. Binding kinetics were calculated using the FortéBio Data Analysis v8.2 software.

[3] = Table 2, average of at least three independent experiments, read-out: Kd (μM) (OR)
[4] = Table 3, average of two or more measurements, read-out: Kd

Molecule	Kd [2, 3] [µM]	Kd [2, 4] [µM]	Kd (μM) ([2]; Table 3, average of two or more measurements)	selective elimination of leukemic B-cells versus healthy B-lymphocytes [1]	induction of PCD ([1]; soluble peptide)	MEC-1 Cell Death (%) 2 h (MEC-1 cells) [%]	MEC-1 Cell Death (%) 2 h, [peptides] = 200 μM (MEC-1 cells) [%]	Cell Death (MEC-1, 2 h) (MEC-1 cells) [%]	Kd(μM)PR [2]
H-(D)K R F Y V V M W ψ(CONMe)K (D)K-OH (KRFYVVMWKK; D-residues, N-methyl amide bond; (1)..(1) Amino acid at position 1 is in the D-configuration; (9)..(9) Amino acid at position 9 is backbone-N- …ON of the Lysine; (10)..(10) Amino acid at position 10 is in the D-configuration) [PKT14]								35	NPD
H-(D)K R F Y V V ψ(CONMe)M W K (D)K-OH (KRFYVVMWKK; D-residues, N-methyl amide bond; (1)..(1) Amino acid at position 1 is in the D-configuration; (7)..(7) Amino acid at position 7 is backbone-N- …ON of the Methionine; (10)..(10) Amino acid at position 10 is in the D-configuration) [PKT13]								0	NPD
kRF(A)VVMWKk ([dK]RFAVVMWK[dK]) [Y4/A]			NPD				0		

The next lines start with results.

Kd [2, 3] [µM]	Kd [2, 4] [µM]	Kd (μM) ([2]; Table 3, average of two or more measurements)	Molecule	selective elimination of leukemic B-cells versus healthy B-lymphocytes [1]	induction of PCD ([1]; soluble peptide)	MEC-1 Cell Death (%) 2 h (MEC-1 cells) [%]	MEC-1 Cell Death (%) 2 h, [peptides] = 200 μM (MEC-1 cells) [%]	Cell Death (MEC-1, 2 h) (MEC-1 cells) [%]	Kd(μM)PR [2]
19 ± 1.6	19 ± 1.6		CSCC[C@H](NC(=O)[C@@H](NC(=O)[C@@H](NC(=O)[C@H](Cc1ccc(O)cc1)NC(=O)[C@H](Cc1ccccc1)NC(=O)[C@H](CCCNC(=N)N)NC(=O)[C@@H](N)CCCCN)C(C)C)C(C)C)C(=O)N[C@@H](Cc1c[nH]c2ccccc12)C(=O)N[C@@H](CCCCN)C(=O)N[C@@H](CCCCN)C(=O)O [4N1K, reference compound]	specifically eliminates leukemic B-cells	induces caspase-independent PCD	23	23		
43 ± 21	43 ± 21		CSCC[C@H](NC(=O)[C@@H](NC(=O)[C@@H](NC(=O)[C@H](Cc1ccc(O)cc1)NC(=O)[C@H](Cc1ccccc1)NC(=O)[C@H](CCCNC(=N)N)NC(=O)[C@H](N)CCCCN)C(C)C)C(C)C)C(=O)N[C@@H](Cc1c[nH]c2ccccc12)C(=O)N[C@@H](CCCCN)C(=O)N[C@H](CCCCN)C(=O)O [PKHB1, reference compound]	specifically eliminates leukemic B-cells		63	63	78	

Reference: patent publication US11759496B2, “Compounds and pharmaceutical use thereof in the treatment of cancer” (priority 2016, dated 2023)
